Reference: ChEMBL document CHEMBL4219057, “Recent Advances of Colony-Stimulating Factor-1 Receptor (CSF-1R) Kinase and Its Inhibitors” (J Med Chem, 2018)
Converted amounts (≈) assume the structure as drawn.

How the values were obtained:
[1] = Aqueous solubility of the compound by turbidity-based assay; format: physicochemical; settings: buffer
[2] = target: Macrophage colony-stimulating factor 1 receptor (Homo sapiens, UniProt P07333); test: Inhibition of CSF1R (unknown origin) using biotinylated peptide substrate
Macrophage colony-stimulating factor 1 receptor, sequence (P07333 whole entry): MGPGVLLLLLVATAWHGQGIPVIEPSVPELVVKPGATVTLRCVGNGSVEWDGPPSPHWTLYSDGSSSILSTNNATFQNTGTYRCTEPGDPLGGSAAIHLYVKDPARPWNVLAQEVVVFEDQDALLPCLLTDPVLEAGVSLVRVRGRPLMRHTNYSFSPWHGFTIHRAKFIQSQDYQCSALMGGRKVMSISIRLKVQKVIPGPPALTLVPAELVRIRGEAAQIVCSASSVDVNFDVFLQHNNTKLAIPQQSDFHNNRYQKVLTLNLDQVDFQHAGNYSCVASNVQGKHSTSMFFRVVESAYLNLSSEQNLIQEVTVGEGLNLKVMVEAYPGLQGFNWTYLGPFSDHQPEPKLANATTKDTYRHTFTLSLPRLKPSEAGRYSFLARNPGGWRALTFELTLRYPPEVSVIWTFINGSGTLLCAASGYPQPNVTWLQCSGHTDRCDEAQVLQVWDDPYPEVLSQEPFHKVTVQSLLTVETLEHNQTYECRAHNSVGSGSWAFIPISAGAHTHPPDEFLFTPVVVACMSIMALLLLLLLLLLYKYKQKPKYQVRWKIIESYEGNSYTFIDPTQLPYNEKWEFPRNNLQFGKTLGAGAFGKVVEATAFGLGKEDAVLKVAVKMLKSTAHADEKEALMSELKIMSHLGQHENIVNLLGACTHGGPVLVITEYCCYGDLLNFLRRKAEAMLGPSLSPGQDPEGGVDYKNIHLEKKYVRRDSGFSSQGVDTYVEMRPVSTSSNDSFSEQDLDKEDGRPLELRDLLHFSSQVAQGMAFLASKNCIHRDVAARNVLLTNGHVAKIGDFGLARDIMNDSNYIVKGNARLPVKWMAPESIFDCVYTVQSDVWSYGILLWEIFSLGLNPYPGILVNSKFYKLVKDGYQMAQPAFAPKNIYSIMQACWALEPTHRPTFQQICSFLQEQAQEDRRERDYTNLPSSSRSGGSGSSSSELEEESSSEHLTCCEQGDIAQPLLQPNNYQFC

[3] = Tmax in cHL patient at 10 mg administered as single dose; format: ADME, organism-based; settings: human, in vivo
[4] = Protein binding in human plasma at 10 uM after 4 hrs by equilibrium dialysis method; format: ADME, cell-free; settings: read-out: PPB (converted)
NFS-60 = test: Antiproliferative activity against mouse M-NFS-60 cells harboring CSF1; format: functional, cell-based
Mus musculus [5] = test: Anti-inflammatory activity in unilateral ureter obstruction-induced C57BL/6 mouse renal inflammation model assessed as reduction in F4/80+ macrophage accumulation in kidney at 40 mg/kg, po via gavage administered at 12 hrs time interval for 7 days starting from end of UUO surgery by […] staining based immunohistochemical analysis relative to control; format: functional; settings: C57BL/6, po
[6] = target: Mast/stem cell growth factor receptor Kit (Homo sapiens, UniProt P10721); test: Inhibition of KIT (unknown origin) using biotinylated peptide substrate
Mast/stem cell growth factor receptor Kit, sequence (P10721 whole entry): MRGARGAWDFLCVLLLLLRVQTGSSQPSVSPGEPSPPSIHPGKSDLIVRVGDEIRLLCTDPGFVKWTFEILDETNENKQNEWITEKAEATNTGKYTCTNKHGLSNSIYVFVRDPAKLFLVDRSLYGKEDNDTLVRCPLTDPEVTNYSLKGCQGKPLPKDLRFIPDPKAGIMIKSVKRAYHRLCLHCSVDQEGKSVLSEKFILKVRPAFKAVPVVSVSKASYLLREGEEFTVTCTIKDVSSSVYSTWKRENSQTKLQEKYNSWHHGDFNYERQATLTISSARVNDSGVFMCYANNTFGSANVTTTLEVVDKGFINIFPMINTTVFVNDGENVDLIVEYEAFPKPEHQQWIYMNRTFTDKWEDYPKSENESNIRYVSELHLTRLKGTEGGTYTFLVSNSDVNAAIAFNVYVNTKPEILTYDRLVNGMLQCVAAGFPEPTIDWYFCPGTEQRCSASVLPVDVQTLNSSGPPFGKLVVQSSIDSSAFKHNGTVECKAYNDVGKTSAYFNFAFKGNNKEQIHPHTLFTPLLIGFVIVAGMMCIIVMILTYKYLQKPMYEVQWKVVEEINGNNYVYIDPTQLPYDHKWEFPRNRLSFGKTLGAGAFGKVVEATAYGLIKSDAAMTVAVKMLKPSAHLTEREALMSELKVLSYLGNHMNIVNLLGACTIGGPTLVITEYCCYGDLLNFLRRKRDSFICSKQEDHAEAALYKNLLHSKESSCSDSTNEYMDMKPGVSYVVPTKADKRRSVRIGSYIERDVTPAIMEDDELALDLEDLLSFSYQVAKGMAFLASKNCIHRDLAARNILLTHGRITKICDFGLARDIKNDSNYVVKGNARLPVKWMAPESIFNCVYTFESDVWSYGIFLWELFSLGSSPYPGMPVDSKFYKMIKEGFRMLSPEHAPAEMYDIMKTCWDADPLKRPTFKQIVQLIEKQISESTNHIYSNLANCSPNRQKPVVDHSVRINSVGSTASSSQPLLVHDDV

Mus musculus [7] = test: Inhibition of LPS-induced TNFalpha level in serum of Swiss Webster mouse at 40 mg/kg, po via gavage pretreated for 4.15 hrs followed by LPS stimulation measured after 1.5 hrs by ELISA relative to control; format: functional
Mus musculus [8] = test: Inhibition of LPS-induced IL-6 level in serum of Swiss Webster mouse at 40 mg/kg, po via gavage pretreated for 4.15 hrs followed by LPS stimulation measured after 1.5 hrs by ELISA relative to control; format: functional
[9] = Drug uptake in tumor of recurrent GB patient at 1000 mg, po daily after 7 days; format: ADME, organism-based, Neoplasm; settings: human, read-out: Drug uptake

| solubility kinetic [1] | IC50 [2] | fraction unbound at 4 h, 10 µM [4] | Compound | EC50 (NFS-60) | other results |
| --- | --- | --- | --- | --- | --- |
| 77 µM (≈ 31.8 µg/mL) | 62 nM |  | COc1cnc2[nH]cc(Cc3ccc(NCc4ccc(C(F)(F)F)cc4)nc3)c2c1 |  |  |
|  |  |  | CC1(C)CC=C(c2nc(C3CC(C)(C)OC(C)(C)C3)ccc2NC(=O)c2nc(C#N)c[nH]2)CC1 [EDICOTINIB] |  | Tmax [3]: 1 to 3.5 h |
|  |  | 0.031 | CNC(=O)c1cc(Oc2ccc3nc(N[C@@H]4CCCC[C@@H]4O)sc3c2)ccn1 | 140 nM |  |
|  |  | 0.037 | CNC(=O)c1cc(Oc2ccc3nc(N[C@@H]4CCCC[C@H]4O)sc3c2)ccn1 [SOTULETINIB] | 71 nM |  |
| 14 µM (≈ 5.35 µg/mL) | 28 nM |  | FC(F)(F)c1ccc(CNc2ccc(Cc3c[nH]c4ncccc34)cn2)cc1 |  | inhibition in vivo at 40 mg/kg (Mus musculus [5]): 77%; IC50 [6]: 16 nM; inhibition in vivo at 40 mg/kg (Mus musculus [7]): 85%; inhibition in vivo at 40 mg/kg (Mus musculus [8]): 75% |
|  |  |  | FC(F)(F)c1ccc(CNc2ccc(Cc3c[nH]c4ncc(Cl)cc34)cn2)cn1 [PEXIDARTINIB] |  | concentration at 168 h [9]: 5500 ng/g |
